Source: PubChem BioAssay AID1963960 (Molecular Pharmacology Branch, DTP, NCI, 2024)
pIC50: −log10 of the molar value.

Tested on: MDA-MB-468 spheroids with HUVEC/MSC, viability
Assay: Anticancer human tumor MDA-MB-468 cell line growth inhibition [PI3K];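 also: spheroids exposed to agents for seven days before readout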;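 as to viability, T/C: 100% = DMSO vehicle control viability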
Conditions: for pIC50: curve of first compound; for viability, T/C: stronger effect = lower value
Summary of the method: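 Complex 3D spheroids (cancer cells + endothelial HUVEC + mesenchymal stem cells); drug pairs of targeted agent x inavolisib/alpelisib/duvelisib/copanlisib; half-log series from ~Cmax, max 10 microM if Cmax unknown; endpoint viability.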

[1] = second compound 0.0316 µM, first compound 0.0316 µM
[2] = second compound 0.0316 µM, first compound 0.1 µM
[3] = second compound 0.0316 µM, first compound 0.316 µM
[4] = second compound 0.0316 µM, first compound 1 µM
[5] = second compound 0.0316 µM, first compound 3.16 µM
[6] = second compound 0.0316 µM, first compound 10 µM
[7] = second compound 0.1 µM, first compound 0.0316 µM
[8] = second compound 0.1 µM, first compound 0.1 µM
[9] = second compound 0.1 µM, first compound 0.316 µM
[10] = second compound 0.1 µM, first compound 1 µM
[11] = second compound 0.1 µM, first compound 3.16 µM
[12] = second compound 0.1 µM, first compound 10 µM
[13] = second compound 0.316 µM, first compound 0.0316 µM
[14] = second compound 0.316 µM, first compound 0.1 µM
[15] = second compound 0.316 µM, first compound 0.316 µM
[16] = second compound 0.316 µM, first compound 1 µM
[17] = second compound 0.316 µM, first compound 3.16 µM
[18] = second compound 0.316 µM, first compound 10 µM
[19] = second compound 1 µM, first compound 0.0316 µM
[20] = second compound 1 µM, first compound 0.1 µM
[21] = second compound 1 µM, first compound 0.316 µM
[22] = second compound 1 µM, first compound 1 µM
[23] = second compound 1 µM, first compound 3.16 µM
[24] = second compound 1 µM, first compound 10 µM
[25] = second compound 3.16 µM, first compound 0.0316 µM
[26] = second compound 3.16 µM, first compound 0.1 µM
[27] = second compound 3.16 µM, first compound 0.316 µM
[28] = second compound 3.16 µM, first compound 1 µM
[29] = second compound 3.16 µM, first compound 3.16 µM
[30] = second compound 3.16 µM, first compound 10 µM
[31] = second compound 10 µM, first compound 0.0316 µM
[32] = second compound 10 µM, first compound 0.1 µM
[33] = second compound 10 µM, first compound 0.316 µM
[34] = second compound 10 µM, first compound 1 µM
[35] = second compound 10 µM, first compound 3.16 µM
[36] = second compound 10 µM, first compound 10 µM

Which results are given for `Cn1ncc(Cl)c1-c1cc(C(=O)NC(CN)Cc2cccc(F)c2)sc1Cl` (centres undefined) + CC(Nc1ncnc2nc[nH]c12)c1cc2cccc(Cl)c2c(=O)n1-c1ccccc1?
pIC50 (second compound 0.0316 µM): 6.53; pIC50 (second compound 0.1 µM): 6.47; pIC50 (second compound 0.316 µM): 6.48; pIC50 (second compound 1 µM): 6.62; pIC50 (second compound 3.16 µM): 7.35; pIC50 (second compound 10 µM): > 7.50; viability, T/C [1]: 83.2%; viability, T/C [2]: 73.1%; viability, T/C [3]: 45.6%; viability, T/C [4]: 32.3%; viability, T/C [5]: 26%; viability, T/C [6]: 17.7%; viability, T/C [7]: 84.6%; viability, T/C [8]: 65.5%; viability, T/C [9]: 50.3%; viability, T/C [10]: 35.9%; viability, T/C [11]: 29.7%; viability, T/C [12]: 16.1%; viability, T/C [13]: 68.7%; viability, T/C [14]: 63.4%; viability, T/C [15]: 51.1%; viability, T/C [16]: 33.9%; viability, T/C [17]: 29.1%; viability, T/C [18]: 18.6%; viability, T/C [19]: 58.4%; viability, T/C [20]: 60.1%; viability, T/C [21]: 47%; viability, T/C [22]: 32.9%; viability, T/C [23]: 27.8%; viability, T/C [24]: 17.9%; viability, T/C [25]: 51.7%; viability, T/C [26]: 45.4%; viability, T/C [27]: 40.8%; viability, T/C [28]: 32.6%; viability, T/C [29]: 25.9%; viability, T/C [30]: 20.2%; viability, T/C [31]: 40.4%; viability, T/C [32]: 41.6%; viability, T/C [33]: 36.3%; viability, T/C [34]: 28%; viability, T/C [35]: 23.8%; viability, T/C [36]: 15.5%

With `Cn1nccc1Nc1nccc(-c2ccn(C(CO)c3ccc(Cl)c(F)c3)c(=O)c2)n1` (centres undefined) + CC(Nc1ncnc2nc[nH]c12)c1cc2cccc(Cl)c2c(=O)n1-c1ccccc1 as the compound, how does the pIC50 (second compound 0.0316 µM) read?
Its pIC50 is less than 5.00.

And the pIC50 (second compound 0.1 µM)?
The pIC50 was less than 5.00.

What about the pIC50 (second compound 0.316 µM) of the same compound?
Its pIC50 is less than 5.00.

What about the pIC50 (second compound 1 µM) of the same compound?
The pIC50 was less than 5.00.

And the pIC50 (second compound 3.16 µM)?
Its pIC50 is less than 5.00.

What about the pIC50 (second compound 10 µM) of the same compound?
Its pIC50 is greater than 7.50.

What about the viability, T/C [1] of the same compound?
Its viability, T/C is 74.2%.

What about the viability, T/C [2] of the same compound?
The viability, T/C was 84.5%.

What about the viability, T/C [3] of the same compound?
Its viability, T/C is 79.5%.

And the viability, T/C [4]?
Its viability, T/C is 79.6%.

What about the viability, T/C [5] of the same compound?
The viability, T/C was 79.4%.

And the viability, T/C [6]?
Its viability, T/C is 78.3%.

What about the viability, T/C [7] of the same compound?
Its viability, T/C is 80.1%.

What about the viability, T/C [8] of the same compound?
Its viability, T/C is 86.1%.

And the viability, T/C [9]?
The viability, T/C was 77.8%.

And the viability, T/C [10]?
The viability, T/C was 96.7%.

And the viability, T/C [11]?
The viability, T/C was 83.8%.

And the viability, T/C [12]?
The viability, T/C was 73.5%.

What about the viability, T/C [13] of the same compound?
The viability, T/C was 73.1%.

What about the viability, T/C [14] of the same compound?
The viability, T/C was 69.3%.

What about the viability, T/C [15] of the same compound?
The viability, T/C was 68.4%.

What about the viability, T/C [16] of the same compound?
The viability, T/C was 73%.

And the viability, T/C [17]?
The viability, T/C was 78.5%.

And the viability, T/C [18]?
Its viability, T/C is 78.9%.

And the viability, T/C [19]?
The viability, T/C was 65.7%.

What about the viability, T/C [20] of the same compound?
The viability, T/C was 59.8%.

And the viability, T/C [21]?
Its viability, T/C is 62%.

What about the viability, T/C [22] of the same compound?
The viability, T/C was 71.8%.

And the viability, T/C [23]?
The viability, T/C was 73.4%.

What about the viability, T/C [24] of the same compound?
The viability, T/C was 72%.

And the viability, T/C [25]?
The viability, T/C was 56.6%.

What about the viability, T/C [26] of the same compound?
The viability, T/C was 55.1%.

And the viability, T/C [27]?
The viability, T/C was 49%.

And the viability, T/C [28]?
Its viability, T/C is 63.2%.

And the viability, T/C [29]?
The viability, T/C was 54.5%.

And the viability, T/C [30]?
Its viability, T/C is 48.8%.

And the viability, T/C [31]?
The viability, T/C was 33.8%.

And the viability, T/C [32]?
Its viability, T/C is 34.8%.

And the viability, T/C [33]?
Its viability, T/C is 31.1%.

And the viability, T/C [34]?
The viability, T/C was 32.2%.

What about the viability, T/C [35] of the same compound?
Its viability, T/C is 39.2%.

And the viability, T/C [36]?
The viability, T/C was 27.6%.
